Assay results taken from patent US9249147B2, “Tyrosine kinase inhibitors” (CHEMBRIDGE CORPORATION, priority 2008, dated 2016).
“And” between values parts separate entries of the source, which are not always exact repeats. Equal entries are not always repeated. Where two headings read alike, the source gives them in different places.

Assays:
UConn = assay: Cell proliferation inhibition, ALCL line UConn; assay type: cell-based; details: Example 4, least sensitive line; read-out: Proliferation IC50 UConn
Source text: Cell proliferation inhibition assays were run for compound (II) with the five target NPM-ALK-dependent ALCL cell lines (Karpas 299, SuDHL-1, JB6, SupM2, UConn) and 12 unrelated cell lines (HEK293, CHO-K1, MCF7, HepG2, H292, H520, H1581, H596, H522, CHA-GO-K1, UMC-11, SK-MES1). […] The pronounced target cell-killing effect is also observed (molecular mechanisms to be determined).

[1] = Plasma Protein Binding (Human), equilibrium dialysis; assay type: in vitro ADME; details: 1.0E−05 M
[2] = Acute IV toxicity in mice; assay type: in vivo; details: 1 mg/kg intravenously, 24 hour observation
CYP2C9 = target: T1, CYP2C9 (Homo sapiens, UniProt P11712); assay: CYP2C9 Inhibition (recombinant, MFC substrate); assay type: in vitro ADME
T1 construct: purchased Cerep (contract assay, ADMET Study 13170)
T1 sequence (P11712 whole entry): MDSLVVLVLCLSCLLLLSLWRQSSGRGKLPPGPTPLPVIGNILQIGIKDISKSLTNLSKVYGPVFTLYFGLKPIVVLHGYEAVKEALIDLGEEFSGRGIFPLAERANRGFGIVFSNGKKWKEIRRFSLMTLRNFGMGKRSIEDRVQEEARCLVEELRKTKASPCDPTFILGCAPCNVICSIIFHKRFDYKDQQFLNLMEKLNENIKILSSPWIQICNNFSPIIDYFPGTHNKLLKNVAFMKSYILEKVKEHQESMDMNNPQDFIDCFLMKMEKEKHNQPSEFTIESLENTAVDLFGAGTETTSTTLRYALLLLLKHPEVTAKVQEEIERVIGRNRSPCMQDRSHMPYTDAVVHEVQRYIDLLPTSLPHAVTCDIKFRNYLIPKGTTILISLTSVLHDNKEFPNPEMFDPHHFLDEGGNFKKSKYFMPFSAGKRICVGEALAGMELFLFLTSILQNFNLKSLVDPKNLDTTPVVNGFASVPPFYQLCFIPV

CYP1A2 = target: T2, CYP1A2 (Homo sapiens, UniProt P05177); assay: CYP1A2 Inhibition (recombinant, CEC substrate); assay type: in vitro ADME; details: for CYP1A2 % Inhibition of Control Values, 1st/2nd/3rd: listed as CRL241, mean
T2 construct: purchased Cerep (contract assay, ADMET Study 13170)
T2 sequence (P05177 1-516): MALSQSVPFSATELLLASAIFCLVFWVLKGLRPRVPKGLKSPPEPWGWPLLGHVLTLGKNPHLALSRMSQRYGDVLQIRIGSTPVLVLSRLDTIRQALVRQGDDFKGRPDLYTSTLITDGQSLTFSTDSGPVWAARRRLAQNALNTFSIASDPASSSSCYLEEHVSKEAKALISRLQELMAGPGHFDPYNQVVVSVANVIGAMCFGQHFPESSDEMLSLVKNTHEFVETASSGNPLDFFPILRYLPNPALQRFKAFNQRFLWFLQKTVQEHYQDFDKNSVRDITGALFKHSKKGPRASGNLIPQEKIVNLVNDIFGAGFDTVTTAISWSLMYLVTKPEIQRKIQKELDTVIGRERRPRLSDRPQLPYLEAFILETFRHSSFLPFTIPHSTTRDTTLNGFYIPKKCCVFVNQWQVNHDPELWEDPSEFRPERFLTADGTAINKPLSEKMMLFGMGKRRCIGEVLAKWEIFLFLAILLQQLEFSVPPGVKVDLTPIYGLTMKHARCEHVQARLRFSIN

[3] = Metabolic Stability (liver micros., human), Cerep Study 13170; assay type: in vitro ADME; details: 1.0E−06 M, human liver microsomes
[4] = Pharmacokinetics study in CD-1 mice (IV, PO); assay type: in vivo; details: for MRT inf: read-out: MRT(0-∞); for concentration at 4 h: time point 4, Mean
Experimental: A comprehensive PK study was run in CD-1 strain of mice with IV (1 mg/kg) and PO (5 mg/kg) routes of drug delivery and analytical data collection at 10 time points over 24 hours (Medicilon, Study CRL0703).
Blood samples were collected by removing the eyeballs at pre-dose and 0.083, 0.25, 0.5, 1, 2, 4, 6, 8, and 24 hours post-dose. The plasma samples and the dose formulation were stored at −20° C. until bioanalysis.

[5] = CD-1, mouse, plasma, iv, 1 mg/kg, IV 1 mg/kg, CD-1 mice, Mean
[6] = CD-1, mouse, plasma, iv, 1 mg/kg, IV 1 mg/kg, individual animals A-D
[7] = IV 1 mg/kg, individual animals A-D, 1 mg/kg

## Cc1ccc(F)cc1C[C@H](C)Nc1cc[nH]c(=O)c1-c1nc2cc3c(cc2[nH]1)C(=O)N(CCN1CCCC1)C3 [compound (II)]
UConn
  IC50: 30 nM
[1]; equilibrium dialysis
  % Protein Bound, Mean: 94.7%
[1]; individual data, listed as CRL241
  % Protein Bound, 1st/2nd: 94.6% and 94.7%
[2]
  Acute IV toxicity: no signs of toxicity were observed
CYP2C9; human, recombinant CYP2C9, probe MFC, 1.0E−06 M, Table 5B individual results, read-out: CYP2C9 % Inhibition of Control Values, 1st/2nd/3rd
  activity at 1 µM: 75.8%
CYP2C9; human, recombinant CYP2C9, probe MFC, 5.0E−06 M, Table 5B individual results, read-out: CYP2C9 % Inhibition of Control Values, 1st/2nd/3rd
  activity at 5 µM: 63.8%
CYP2C9; human, recombinant CYP2C9, probe MFC, 1.0E−06 M, read-out: CYP2C9 % Inhibition of Control Values
  inhibition at 1 µM: 20%
CYP2C9; human, recombinant CYP2C9, probe MFC, 5.0E−06 M, read-out: CYP2C9 % Inhibition of Control Values
  inhibition at 5 µM: 41%
CYP2C9; read-out: approximate IC50 CYP2C9
  IC50: > 5000 nM
CYP1A2; 1 μM and 5 μM
  CYP1A2 inhibition: No inhibition was detected
CYP1A2; 1.0E−06 M, Table 5B individual results
  CYP1A2 % Inhibition of Control Values, 1st/2nd/3rd: 106.6%
CYP1A2; 5.0E−06 M, Table 5B individual results
  CYP1A2 % Inhibition of Control Values, 1st/2nd/3rd: 90.3%
CYP1A2; recombinant CYP1A2, probe CEC, 1.0E−06 M, Table 5B individual results, read-out: CYP1A2 % Inhibition of Control Values, 1st/2nd/3rd
  activity at 1 µM: 110%
CYP1A2; recombinant CYP1A2, probe CEC, 5.0E−06 M, Table 5B individual results, read-out: CYP1A2 % Inhibition of Control Values, 1st/2nd/3rd
  activity at 5 µM: 92.1%
CYP1A2; recombinant CYP1A2, probe CEC, 1.0E−06 M, read-out: CYP1A2 % Inhibition of Control Values
  inhibition at 1 µM: -7%
CYP1A2; recombinant CYP1A2, probe CEC, 5.0E−06 M, read-out: CYP1A2 % Inhibition of Control Values
  inhibition at 5 µM: 10%
[3]; 1 hr incubation
  Mean Parent Remaining: 73%
[3]; Table 8B
  Parent Remaining Mean: 73%
[3]; Table 8B, listed as CRL241
  Parent Remaining 1st/2nd: 70.3% and 76.4%
[4]; [5]
  AUC(0-inf): 105 ng·h/mL
  Tmax: 4.8 min
  MRT inf: 1.36 h
[4]; CD-1, mouse, plasma, iv, 1 mg/kg, IV 1 mg/kg, CD-1 mice, Mean, read-out: AUC(0-t)
  AUC(0-t): 102 ng·h/mL
[4]; CD-1, mouse, plasma, iv, 1 mg/kg, IV 1 mg/kg, CD-1 mice, Mean, read-out: Cmax
  Cmax: 186 ng/mL
[4]; [6]
  AUC(0-inf): 102 ng·h/mL
  Tmax: 4.98 min
  MRT inf: 1.37 h
[4]; CD-1, mouse, plasma, iv, 1 mg/kg, IV 1 mg/kg, individual animals A-D, read-out: AUC(0-t)
  AUC(0-t): 100 ng·h/mL
[4]; CD-1, mouse, plasma, iv, 1 mg/kg, IV 1 mg/kg, individual animals A-D, read-out: Cmax
  Cmax: 248 ng/mL
[4]; CD-1, mouse, plasma, iv, 1 mg/kg, IV 1 mg/kg, time point 0.083, Mean
  concentration at […]: 186 ng/mL
[4]; CD-1, mouse, plasma, iv, 1 mg/kg, IV 1 mg/kg, time point 0.083, individual animals A-D
  concentration at […]: 163 ng/mL
[4]; CD-1, mouse, plasma, iv, 1 mg/kg, IV 1 mg/kg, time point 0.35, Mean
  concentration at […]: 74 ng/mL
[4]; CD-1, mouse, plasma, iv, 1 mg/kg, IV 1 mg/kg, time point 0.5, Mean
  concentration at 0.5 h: 32.9 ng/mL
[4]; CD-1, mouse, plasma, iv, 1 mg/kg, IV 1 mg/kg, time point 0.5, individual animals A-D
  concentration at 0.5 h: 36.8 ng/mL
[4]; CD-1, mouse, plasma, iv, 1 mg/kg, IV 1 mg/kg, time point 1, Mean
  concentration at 1 h: 18.9 ng/mL
[4]; CD-1, mouse, plasma, iv, 1 mg/kg, IV 1 mg/kg, time point 1, individual animals A-D
  concentration at 1 h: 14.1 ng/mL
[4]; CD-1, mouse, plasma, iv, 1 mg/kg, IV 1 mg/kg, time point 2, Mean
  concentration at 2 h: 10.2 ng/mL
[4]; CD-1, mouse, plasma, iv, 1 mg/kg, IV 1 mg/kg, time point 2, individual animals A-D
  concentration at 2 h: 10.4 ng/mL
[4]; CD-1, mouse, plasma, iv, 1 mg/kg, IV 1 mg/kg
  concentration at 4 h: 5.05 ng/mL
[4]; CD-1, mouse, plasma, iv, 1 mg/kg, IV 1 mg/kg, time point 6, Mean
  concentration at 6 h: 2.18 ng/mL
[4]; CD-1, mouse, plasma, iv, 1 mg/kg, IV 1 mg/kg, time point 6, individual animals A-D
  concentration at 6 h: 2.13 ng/mL
[4]; CD-1, mouse, plasma, po, 5 mg/kg, PO 5 mg/kg, time point 0.083, Mean
  concentration at […]: 1.24 ng/mL
[4]; CD-1, mouse, plasma, po, 5 mg/kg, PO 5 mg/kg, time point 0.083, individual animals A-D
  concentration at […]: 2.07 ng/mL
[4]; CD-1, mouse, plasma, po, 5 mg/kg, PO 5 mg/kg, time point 0.35, individual animals A-D
  concentration at […]: 1.21 ng/mL
[4]; CD-1, mouse, plasma, po, 5 mg/kg, PO 5 mg/kg, time point 2, Mean
  concentration at 2 h: 1.01 ng/mL
[4]; CD-1, mouse, plasma, po, 5 mg/kg, PO 5 mg/kg, time point 2, individual animals A-D
  concentration at 2 h: 1.47 ng/mL
[4]; CD-1, mouse, plasma, po, 5 mg/kg, PO 5 mg/kg
  concentration at 4 h: 3.64 ng/mL
[4]; CD-1, mouse, plasma, po, 5 mg/kg, PO 5 mg/kg, time point 6, individual animals A-D
  concentration at 6 h: 1.34 ng/mL
[4]; IV 1 mg/kg, CD-1 mice, Mean
  CL2: 159 mL/min/kg
  V2: 18.63 L/kg
[4]; [7]
  AUC(0-t): 96.033 ng·h/mL and 110.999 ng·h/mL and 102.243 ng·h/mL
  AUC(0-∞): 97.734 ng·h/mL and 116.619 ng·h/mL and 105.516 ng·h/mL
  CL2: 163.5 mL/min/kg and 170.53 mL/min/kg and 142.9 mL/min/kg and 158 mL/min/kg
  Cmax: 144.182 ng/mL and 163.492 ng/mL and 186.531 ng/mL
  MRT(0-∞): 1.295 h and 1.614 h and 1.176 h
  T1/2z: 1.16 h and 1.124 h and 1.81 h and 1.395 h
  V2: 16.427 L/kg and 16.598 L/kg and 22.401 L/kg and 19.076 L/kg
[4]; IV 1 mg/kg, time point 0.083, individual animals A-D, 1 mg/kg
  Plasma Concentration: 186.53 ng/mL and 248.44 ng/mL and 144.18 ng/mL
[4]; IV 1 mg/kg, time point 0.5, individual animals A-D, 1 mg/kg
  Plasma Concentration: 29.12 ng/mL and 31.99 ng/mL and 33.27 ng/mL
[4]; IV 1 mg/kg, time point 1, individual animals A-D, 1 mg/kg
  Plasma Concentration: 19.36 ng/mL and 19.24 ng/mL and 22.93 ng/mL
[4]; IV 1 mg/kg, time point 2, individual animals A-D, 1 mg/kg
  Plasma Concentration: 8.73 ng/mL and 9.58 ng/mL and 12.30 ng/mL
[4]; IV 1 mg/kg, time point 4, individual animals A-D, 1 mg/kg
  Plasma Concentration: 8.09 ng/mL and 4.47 ng/mL and 3.14 ng/mL and 3.60 ng/mL
[4]; IV 1 mg/kg, time point 6, individual animals A-D, 1 mg/kg
  Plasma Concentration: 1.81 ng/mL and 3.23 ng/mL and 1.77 ng/mL
[4]; IV 1 mg/kg, time point 8, individual animals A-D
  Plasma Concentration: BLQ
[4]; IV 1 mg/kg, time point 24, individual animals A-D
  Plasma Concentration: BLQ
[4]; IV, mice
  Volume of distribution relative to total body water: 26 fold
[4]; PO 5 mg/kg, time point 0.083, individual animals A-D, 5 mg/kg
  Plasma Concentration: 2.19 ng/mL and BLQ (2×)
[4]; PO 5 mg/kg, time point 0.35, individual animals A-D, 5 mg/kg
  Plasma Concentration: BLQ
[4]; PO 5 mg/kg, time point 0.5, individual animals A-D
  Plasma Concentration: BLQ
[4]; PO 5 mg/kg, time point 1, individual animals A-D
  Plasma Concentration: BLQ
[4]; PO 5 mg/kg, time point 2, individual animals A-D, 5 mg/kg
  Plasma Concentration: 1.00 ng/mL and BLQ (2×)
[4]; PO 5 mg/kg, time point 4, individual animals A-D, 5 mg/kg
  Plasma Concentration: 6.06 ng/mL and 1.90 ng/mL and 1.22 ng/mL and 5.39 ng/mL
[4]; PO 5 mg/kg, time point 6, individual animals A-D, 5 mg/kg
  Plasma Concentration: BLQ
[4]; PO 5 mg/kg, time point 8, individual animals A-D
  Plasma Concentration: BLQ
[4]; PO 5 mg/kg, time point 24, individual animals A-D
  Plasma Concentration: BLQ
[4]; mouse, plasma, IV 1 mg/kg, CD-1 mice, Mean, read-out: T1/2z (plasma half-life) (converted)
  half-life: 1.37 h
[4]; mouse, plasma, PO 5 mg/kg vs IV 1 mg/kg, CD-1 mice
  bioavailability: < 1%
